Starred links: 1 amine or outer side, 2 acyl side, 3 side chain; linkers in the order of their positions; H or OH if unused. Positions of bridges follow the written chain, without caps; N, C: chain ends. Non-standard residues stand in square brackets, D forms with d. Residues, ends and D or L forms follow the SMILES beside them. Groups on a side chain read outwards from the residue. *: point of attachment. Trp(1-CH2COOH) = N[C@@H](Cc1cn(CC(=O)O)c2ccccc12)C(=O)O; X79 = CCn1c2ccccc2c2cc(NC(=S)*)ccc21; X49 = N#Cc1ccccc1NC(=N)c1ccccc1N*; Hyp = O=C(O)[C@@H]1C[C@@H](O)CN1; X35 = Cc1n[nH]c2c(NC(=S)*)cccc12; X70 = Cc1coc2c(F)cc(NC(=S)*)cc12; X19 = CCOC(=O)c1ccc(NC(=S)*)cc1; pNA = O=[N+]([O-])c1ccc(N*)cc1; X42 = S=C(Nc1ccc2nccnc2c1Br)*; NMeNle = CCCC[C@H](NC)C(=O)O; X4 = S=C(Nc1ccc2c(c1)OCCO2)*; X54 = S=C(Nc1cccc2ncccc12)*; 4Abz = Nc1ccc(C(=O)O)cc1; NMeA = CN[C@@H](C)C(=O)O; X58 = COc1cc(N*)cc(OC)c1; Dab = NCC[C@H](N)C(=O)O; X39 = CCCCOc1ccc(N*)cc1; Dap = NC[C@H](N)C(=O)O; X15 = Cc1ccc(Cl)cc1N*; CO = O=C([*:1])[*:2]
The molecules below were run against T1, PD-1/PD-L1 (Homo sapiens, UniProt Q9NZQ7) (assay: PD-1/PD-L1 Homogenous Time-Resolved Fluorescence (HTRF) binding assay). Conditions: not given.
T1 construct: TVMV protease site linker (C); made in house; host or cells: HEK293T cells
T1 sequence (Q9NZQ7 18-239): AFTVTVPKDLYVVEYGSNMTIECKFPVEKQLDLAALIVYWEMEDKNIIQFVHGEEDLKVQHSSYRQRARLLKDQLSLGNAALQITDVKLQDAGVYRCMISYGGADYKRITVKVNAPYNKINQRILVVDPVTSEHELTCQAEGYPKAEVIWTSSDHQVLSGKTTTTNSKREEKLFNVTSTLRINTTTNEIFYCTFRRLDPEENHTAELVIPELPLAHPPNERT
Summary of the method: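 HTRF read-out using europium cryptate anti-Ig (1 nM) and APC anti-His (20 nM) on extracellular-domain fusion proteins in dPBS/0.1% BSA/0.05% Tween-20. Inhibitor first incubated 15 min with 10 nM PD-L1-His, followed by 20 nM PD-1-Ig for another 15 min.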

SMILES	IC50 [nM]
CCCC[C@H]1C(=O)N(C)[C@@H](CCCC)C(=O)N[C@@H](CC(C)C)C(=O)N[C@H](C(=O)NCC(N)=O)CSCC(=O)N[C@@H](Cc2ccc(O)cc2)C(=O)N(C)[C@@H](C)C(=O)N[C@@H](CC(N)=O)C(=O)N2CCC[C@H]2C(=O)N[C@@H](CNC(=O)Nc2ccc([N+](=O)[O-])cc2)C(=O)N[C@@H](CC(C)C)C(=O)N2C[C@H](O)C[C@H]2C(=O)N[C@@H](Cc2c[nH]c3ccccc23)C(=O)N[C@@H](CCNC(=O)Nc2ccc([N+](=O)[O-])cc2)C(=O)N[C@@H](Cc2cn(CC(=O)O)c3ccccc23)C(=O)N1C [Example 1130] ({CH2CO}-Y[NMeA]NP[Dap]([CO-pNA])L[Hyp]W[Dab]([CO-pNA])[Trp(1-CH2COOH)][NMeNle][NMeNle]LCG-NH2; thioether N-14)	2

Same assay, conditions: PD-L1-His 10 nM pre-incubated with inhibitor, PD-1-Ig 20 nM; read-out: HTRF IC50

IC50 [nM]	SMILES
3.9	CCCC[C@H]1C(=O)N(C)[C@@H](CCCC)C(=O)N[C@@H](CC(C)C)C(=O)N[C@H](C(=O)NCC(N)=O)CSCC(=O)N[C@@H](Cc2ccc(O)cc2)C(=O)N(C)[C@@H](C)C(=O)N[C@@H](CC(N)=O)C(=O)N2CCC[C@H]2C(=O)N[C@@H](CNC(=S)Nc2cccc3c(C)n[nH]c23)C(=O)N[C@@H](CC(C)C)C(=O)N2C[C@H](O)C[C@H]2C(=O)N[C@@H](Cc2c[nH]c3ccccc23)C(=O)N[C@@H](CCNC(=S)Nc2cccc3c(C)n[nH]c23)C(=O)N[C@@H](Cc2cn(CC(=O)O)c3ccccc23)C(=O)N1C [Example 3052] ({CH2CO}-Y[NMeA]NP[Dap](X35)L[Hyp]W[Dab](X35)[Trp(1-CH2COOH)][NMeNle][NMeNle]LCG-NH2; thioether N-14)
3.8	CCCC[C@H]1C(=O)N(C)[C@@H](CCCC)C(=O)N[C@@H](CC(C)C)C(=O)N[C@H](C(=O)NCC(N)=O)CSCC(=O)N[C@@H](Cc2ccc(O)cc2)C(=O)N(C)[C@@H](C)C(=O)N[C@@H](CC(N)=O)C(=O)N2CCC[C@H]2C(=O)N[C@@H](CNC(=S)Nc2ccc3c(c2)c2ccccc2n3CC)C(=O)N[C@@H](CC(C)C)C(=O)N2C[C@H](O)C[C@H]2C(=O)N[C@@H](Cc2c[nH]c3ccccc23)C(=O)N[C@@H](CCN)C(=O)N[C@@H](Cc2cn(CC(=O)O)c3ccccc23)C(=O)N1C [Example 2014] ({CH2CO}-Y[NMeA]NP[Dap](X79)L[Hyp]W[Dab][Trp(1-CH2COOH)][NMeNle][NMeNle]LCG-NH2; thioether N-14)
4.3	CCCC[C@H]1C(=O)N(C)[C@@H](CCCC)C(=O)N[C@@H](CC(C)C)C(=O)N[C@H](C(=O)NCC(N)=O)CSCC(=O)N[C@@H](Cc2ccc(O)cc2)C(=O)N(C)[C@@H](C)C(=O)N[C@@H](CC(N)=O)C(=O)N2CCC[C@H]2C(=O)N[C@@H](CNC(=O)Nc2cc(Cl)ccc2C)C(=O)N[C@@H](CC(C)C)C(=O)N2C[C@H](O)C[C@H]2C(=O)N[C@@H](Cc2c[nH]c3ccccc23)C(=O)N[C@@H](CCNC(=O)Nc2cc(Cl)ccc2C)C(=O)N[C@@H](Cc2cn(CC(=O)O)c3ccccc23)C(=O)N1C [Example 1118] ({CH2CO}-Y[NMeA]NP[Dap]([CO-X15])L[Hyp]W[Dab]([CO-X15])[Trp(1-CH2COOH)][NMeNle][NMeNle]LCG-NH2; thioether N-14)
5.9	CCCC[C@H]1C(=O)N(C)[C@@H](CCCC)C(=O)N[C@@H](CC(C)C)C(=O)N[C@H](C(=O)NCC(N)=O)CSCC(=O)N[C@@H](Cc2ccc(O)cc2)C(=O)N(C)[C@@H](C)C(=O)N[C@@H](CC(N)=O)C(=O)N2CCC[C@H]2C(=O)N[C@@H](CNC(=S)Nc2ccc3nccnc3c2Br)C(=O)N[C@@H](CC(C)C)C(=O)N2C[C@H](O)C[C@H]2C(=O)N[C@@H](Cc2c[nH]c3ccccc23)C(=O)N[C@@H](CCNC(=S)Nc2ccc3nccnc3c2Br)C(=O)N[C@@H](Cc2cn(CC(=O)O)c3ccccc23)C(=O)N1C [Example 3070] ({CH2CO}-Y[NMeA]NP[Dap](X42)L[Hyp]W[Dab](X42)[Trp(1-CH2COOH)][NMeNle][NMeNle]LCG-NH2; thioether N-14)
4	CCCC[C@H]1C(=O)N(C)[C@@H](CCCC)C(=O)N[C@@H](CC(C)C)C(=O)N[C@H](C(=O)NCC(N)=O)CSCC(=O)N[C@@H](Cc2ccc(O)cc2)C(=O)N(C)[C@@H](C)C(=O)N[C@@H](CC(N)=O)C(=O)N2CCC[C@H]2C(=O)N[C@@H](CNC(=S)Nc2ccc(C(=O)OCC)cc2)C(=O)N[C@@H](CC(C)C)C(=O)N2C[C@H](O)C[C@H]2C(=O)N[C@@H](Cc2c[nH]c3ccccc23)C(=O)N[C@@H](CCN)C(=O)N[C@@H](Cc2cn(CC(=O)O)c3ccccc23)C(=O)N1C [Example 1042] ({CH2CO}-Y[NMeA]NP[Dap](X19)L[Hyp]W[Dab][Trp(1-CH2COOH)][NMeNle][NMeNle]LCG-NH2; thioether N-14)
3.8	CCCC[C@H]1C(=O)N(C)[C@@H](CCCC)C(=O)N[C@@H](CC(C)C)C(=O)N[C@H](C(=O)NCC(N)=O)CSCC(=O)N[C@@H](Cc2ccc(O)cc2)C(=O)N(C)[C@@H](C)C(=O)N[C@@H](CC(N)=O)C(=O)N2CCC[C@H]2C(=O)N[C@@H](CNC(=S)Nc2cccc3ncccc23)C(=O)N[C@@H](CC(C)C)C(=O)N2C[C@H](O)C[C@H]2C(=O)N[C@@H](Cc2c[nH]c3ccccc23)C(=O)N[C@@H](CCN)C(=O)N[C@@H](Cc2cn(CC(=O)O)c3ccccc23)C(=O)N1C [Example 3018] ({CH2CO}-Y[NMeA]NP[Dap](X54)L[Hyp]W[Dab][Trp(1-CH2COOH)][NMeNle][NMeNle]LCG-NH2; thioether N-14)

The remaining lines, values behind:

SMILES	IC50 [nM]
CCCC[C@H]1C(=O)N(C)[C@@H](CCCC)C(=O)N[C@@H](CC(C)C)C(=O)N[C@H](C(=O)NCC(N)=O)CSCC(=O)N[C@@H](Cc2ccc(O)cc2)C(=O)N(C)[C@@H](C)C(=O)N[C@@H](CC(N)=O)C(=O)N2CCC[C@H]2C(=O)N[C@@H](CNC(=O)Nc2cc(OC)cc(OC)c2)C(=O)N[C@@H](CC(C)C)C(=O)N2C[C@H](O)C[C@H]2C(=O)N[C@@H](Cc2c[nH]c3ccccc23)C(=O)N[C@@H](CCN)C(=O)N[C@@H](Cc2cn(CC(=O)O)c3ccccc23)C(=O)N1C [Example 1064] ({CH2CO}-Y[NMeA]NP[Dap]([CO-X58])L[Hyp]W[Dab][Trp(1-CH2COOH)][NMeNle][NMeNle]LCG-NH2; thioether N-14)	3
CCCC[C@H]1C(=O)N(C)[C@@H](CCCC)C(=O)N[C@@H](CC(C)C)C(=O)N[C@H](C(=O)NCC(N)=O)CSCC(=O)N[C@@H](Cc2ccc(O)cc2)C(=O)N(C)[C@@H](C)C(=O)N[C@@H](CC(N)=O)C(=O)N2CCC[C@H]2C(=O)N[C@@H](CNC(=S)Nc2cc(F)c3occ(C)c3c2)C(=O)N[C@@H](CC(C)C)C(=O)N2C[C@H](O)C[C@H]2C(=O)N[C@@H](Cc2c[nH]c3ccccc23)C(=O)N[C@@H](CCN)C(=O)N[C@@H](Cc2cn(CC(=O)O)c3ccccc23)C(=O)N1C [Example 3054] ({CH2CO}-Y[NMeA]NP[Dap](X70)L[Hyp]W[Dab][Trp(1-CH2COOH)][NMeNle][NMeNle]LCG-NH2; thioether N-14)	1.3
CCCCOc1ccc(NC(=O)NCC[C@@H]2NC(=O)[C@H](Cc3c[nH]c4ccccc34)NC(=O)[C@@H]3C[C@@H](O)CN3C(=O)[C@H](CC(C)C)NC(=O)[C@H](CNC(=O)Nc3ccc(OCCCC)cc3)NC(=O)[C@@H]3CCCN3C(=O)[C@H](CC(N)=O)NC(=O)[C@H](C)N(C)C(=O)[C@H](Cc3ccc(O)cc3)NC(=O)CSC[C@@H](C(=O)NCC(N)=O)NC(=O)[C@H](CC(C)C)NC(=O)[C@H](CCCC)N(C)C(=O)[C@H](CCCC)N(C)C(=O)[C@H](Cc3cn(CC(=O)O)c4ccccc34)NC2=O)cc1 [Example 1120] ({CH2CO}-Y[NMeA]NP[Dap]([CO-X39])L[Hyp]W[Dab]([CO-X39])[Trp(1-CH2COOH)][NMeNle][NMeNle]LCG-NH2; thioether N-14)	8.5
CCCC[C@H]1C(=O)N(C)[C@@H](CCCC)C(=O)N[C@@H](CC(C)C)C(=O)N[C@H](C(=O)NCC(N)=O)CSCC(=O)N[C@@H](Cc2ccc(O)cc2)C(=O)N(C)[C@@H](C)C(=O)N[C@@H](CC(N)=O)C(=O)N2CCC[C@H]2C(=O)N[C@@H](CNC(=O)Nc2ccccc2C(=N)Nc2ccccc2C#N)C(=O)N[C@@H](CC(C)C)C(=O)N2C[C@H](O)C[C@H]2C(=O)N[C@@H](Cc2c[nH]c3ccccc23)C(=O)N[C@@H](CCNC(=O)Nc2ccccc2C(=N)Nc2ccccc2C#N)C(=O)N[C@@H](Cc2cn(CC(=O)O)c3ccccc23)C(=O)N1C [Example 1087] ({CH2CO}-Y[NMeA]NP[Dap]([CO-X49])L[Hyp]W[Dab]([CO-X49])[Trp(1-CH2COOH)][NMeNle][NMeNle]LCG-NH2; thioether N-14)	2.6
CCCC[C@H]1C(=O)N(C)[C@@H](CCCC)C(=O)N[C@@H](CC(C)C)C(=O)N[C@H](C(=O)NCC(N)=O)CSCC(=O)N[C@@H](Cc2ccc(O)cc2)C(=O)N(C)[C@@H](C)C(=O)N[C@@H](CC(N)=O)C(=O)N2CCC[C@H]2C(=O)N[C@@H](CNC(=O)Nc2ccc(C(=O)OCC)cc2)C(=O)N[C@@H](CC(C)C)C(=O)N2C[C@H](O)C[C@H]2C(=O)N[C@@H](Cc2c[nH]c3ccccc23)C(=O)N[C@@H](CCN)C(=O)N[C@@H](Cc2cn(CC(=O)O)c3ccccc23)C(=O)N1C [Example 1069] ({CH2CO}-Y[NMeA]NP[Dap]([CO-4Abz-OEt])L[Hyp]W[Dab][Trp(1-CH2COOH)][NMeNle][NMeNle]LCG-NH2; thioether N-14)	0.4
CCCC[C@H]1C(=O)N(C)[C@@H](CCCC)C(=O)N[C@@H](CC(C)C)C(=O)N[C@H](C(=O)NCC(N)=O)CSCC(=O)N[C@@H](Cc2ccc(O)cc2)C(=O)N(C)[C@@H](C)C(=O)N[C@@H](CC(N)=O)C(=O)N2CCC[C@H]2C(=O)N[C@@H](CNC(=S)Nc2ccc3c(c2)OCCO3)C(=O)N[C@@H](CC(C)C)C(=O)N2C[C@H](O)C[C@H]2C(=O)N[C@@H](Cc2c[nH]c3ccccc23)C(=O)N[C@@H](CCNC(=S)Nc2ccc3c(c2)OCCO3)C(=O)N[C@@H](Cc2cn(CC(=O)O)c3ccccc23)C(=O)N1C [Example 3007] ({CH2CO}-Y[NMeA]NP[Dap](X4)L[Hyp]W[Dab](X4)[Trp(1-CH2COOH)][NMeNle][NMeNle]LCG-NH2; thioether N-14)	2.6
